Key:
fusarium = conditions: in the literature; cited from earlier work
[1] = system: Tomato Russet Mite (Aculops lycopersici); conditions: sprays on young tomato plants naturally infested
From the text: Fifty grams of potassium sorbate and fifty grams of sodium bicarbonate are mixed with one hundred grams of carrageenan.

powdery mildew = test: Sprays against powdery mildew infestations on nursery grown plants; format: in vivo; conditions: for eliminating infestations of powdery mildew: single ingredient sprayed at 1 tablespoon per gallon of water, nursery grown roses, gerbera daisies, ornamental peas, trumpet vines, chrysanthemums, grapevines
From the text: One hundred grams of potassium bicarbonate is blended with one hundred grams of carrageenan.

O=C([O-])O.[K+] [potassium bicarbonate]
efficacy against fusarium, each product separately (fusarium): shown efficacy

C/C=C/C=C/C(=O)[O-].[K+] [potassium sorbate]
effect on Tomato Russet Mites [1]: no effect
eliminating infestations of powdery mildew (powdery mildew): ineffective

O=C([O-])O.[Na+] [sodium bicarbonate]
effect on powdery mildew that had overwintered on ornamental pea leaves (powdery mildew; overwintered powdery mildew, ornamental pea leaves): unaffected
eliminating infestations of powdery mildew (powdery mildew): ineffective

Reference: patent publication US20200323215A1, “PESTICIDE FORMULATIONS DERIVED FROM COMBINATIONS OF CARRAGEENANS, SORBIC ACIDS, AND BICARBONATES” (Circadian Crop Sciences LLC, priority 2019, published 2020)
